Data as given in patent US20220339260A1, “METHOD FOR PRODUCING INSULIN-PRODUCING CELL USING DIHYDROINDOLIZINONE DERIVATIVES” (TOKYO INSTITUTE OF TECHNOLOGY, priority 2019, published 2022).

Tested on: human iPS cell Toe strain
Assay: Effect to promote differentiation from human iPS cells into insulin-producing cells (insulin-positive cell rate, Reference Example 1)
Assay type: cell-based
Parameters: key to Activity: the sum of activity values at the two concentrations was obviously higher than the control untreated with compounds while being lower than the positive control was expressed as +; the sum was equivalent to the positive control was expressed as ++; the sum was higher than the positive control was expressed as +++
Details: activity intensity: sum of activity values (increment in insulin-positive cell rate) at 2 μM and 10 μM compared with positive control (compound of Synthesis Example 1)
From the text: The evaluation system of the effect (efficacy) to promote differentiation from human iPS cells into insulin-producing cells was constructed with reference to known information (Non Patent Document 6). Further, the medium used in each differentiation stage was also produced with reference to known information (differentiation media A to E (Media A to E) described in Non Patent Document 6 were used respectively for stages 1 to 5; however, a medium free from GLP-1 receptor agonist and nicotinamide was used as differentiation medium E).
In order to evaluate the efficacy of each compound, the compound of Synthesis Example 1 was used as a positive control, and dimethylsulfoxide (DMSO) (SIGMA, D2650) with a final concentration of 0.1% was used as a control untreated with compounds. Each compound was dissolved in DMSO, and two types of compound solutions were prepared so as to have final concentrations of 2 μM and 10 μM after the compound was added to the medium. In the following evaluation, the compound solutions were added to the medium to 0.1% that is the final concentration of DMSO.
First, induction from human iPS cell Toe strain (National Institutes of Biomedical Innovation, Health and Nutrition) into cells on day 7 of culture (2 days after replacement with differentiation medium C (cells in the differentiation process from FOXA2-positive primitive gut tube cells into PDX1-positive pancreatic progenitor cells)) was performed according to the method of Non Patent Document 6 for “inducing differentiation from human iPS cells into pancreatic β cells”, and the cells were collected and thereafter stored in liquid nitrogen using Bambanker (NIPPON Genetics Co, Ltd.) at 1×10^7 cells/mL/tube, to produce a cell stock for evaluation. The cell stock was dissolved at the start of the evaluation of efficacy, suspended in differentiation medium C for stage 3 (DMEM high glucose (Life technologies, 11965092), 0.25 μM SANT-1, 0.1 μM LDN193189 (Stemgent, 04-0074), 10 μM SB431542, 2 μM Retinoic acid (Stemgent, 04-0021), 1% B27 serum free supplement (Life technologies, 17504044) and thereafter seeded in a 96-well plate (Corning, #3340) coated with Synthemax II (Corning, #5656) at 1×10^5 cells/well. After culturing for 2 days, the medium was removed, and new differentiation medium C for stage 3 with the compound or only DMSO added was added thereto at 100 μL/well. After culturing for 2 days, the medium was removed, and new differentiation medium D for stage 4 (DMEM high glucose, 0.1 μM LDN193189, 5 μM TGF-β type I receptor kinase inhibitor II (Calbiochem 616452), 0.3 μM (−)-indolactam V (Enzo life science ALX-420-011-C300), 1% B27 serum free supplement) with the compound or only DMSO added was added thereto at 100 μL/well. After culturing for 2 to 3 days, the medium was removed, and new differentiation medium E for stage 5 (GLP-1 receptor agonist and nicotinamide-free; Knockout […] (Life technologies, 12660012), 1% B27 serum free supplement) with the compound or only DMSO added was added thereto at 200 μL/well. After culturing for 2 days, the medium was removed, and a 4% paraformaldehyde phosphorus acid buffer (Wako, 163-20145) was added thereto at 150 μL/well and left standing for 30 to 60 minutes at room temperature to fix the cells. A phosphorus acid buffer (PBS) (Takara, T9181) containing 1% Triton X-100 (Sigma, T8787) was left standing for 15 minutes at room temperature, then washed with PBS-T (Takara, T9183), and was blocked for 1 hour using 20% Blocking One (Nacalai tesque, Tokyo, Japan) diluted with PBS-T at room temperature. After the removal of Blocking One, guinea pig anti-insulin antibody (Abcam, ab7842) diluted 200-fold with 20% Blocking One was added thereto at 50 μL/well, followed by standing at 4° C. overnight. […]

Question: How did the Activity turn out when `COc1ccccc1-c1ccc(-c2cnc(NC(=O)C3CCC(=O)c4cccn43)s2)cc1` (stereo not shown) [Example 22] was run?
Answer: +++

Question: With `CC(C)COc1ccc(-c2cnc(NC(=O)C3CCC(=O)c4cccn43)s2)cc1` (stereo not shown) [Example 49] as the compound, how does the Activity read?
Answer: +++

Question: For `O=C1CCC(C(=O)Nc2nc3ccc(-c4ccc(Cl)cc4)cc3s2)n2cccc21` (stereo not shown) [Example 93], which Activity is on record?
Answer: +++

Question: `O=C1CCC(C(=O)Nc2ncc(-c3ccc(OC(F)(F)F)c(CO)c3)s2)n2cccc21` (stereo not shown) [Example 31] was tested. Which Activity did it give?
Answer: +

Question: For `Cc1cc(-c2sc(NC(=O)C3CCC(=O)c4cccn43)nc2C)ccc1OC(F)(F)F` (stereo not shown) [Example 89], which Activity is on record?
Answer: +++

Question: Which Activity does the source give for `Cc1cc2n(c1)C(C(=O)Nc1ncc(-c3ccc(OC(C)(C)C)cc3)s1)CCC2=O` (stereo not shown) [Example 63] here?
Answer: +++

Tested on: SK7 mouse ES cells
Assay: Screening for β cell differentiation enhancer using SK7 mouse ES cells (Pdx1-GFP)
Assay type: cell-based
Details: LY411575 alone
Description: The SK7 mouse ES cells were differentiated into β cells basically according to the previous report (Nakashima et al., 2015). Briefly, the cells were seeded at 5,000 cells per well in CellBIND 384-well (CORNING, 3770) cell culture plate or at 20,000 cells per well in a 96-well plate (Sigma) coated with 0.2% gelatin. Then, the cells were cultured in medium 1 from days 1 to 5. Medium 1 consisted of DMEM (high glucose) (Life Technologies, 11965092) supplemented with 0.1 mM NEAA (Gibco, 11140-50), 2 mM L-glutamine (Nacalai, 16948-04), 100 U/mL penicillin-streptomycin (Nacalai, 26252-94), 0.01 mM β-mercaptoethanol (Sigma), 1% insulin-transferrin-selenium supplement (ITS: Life Technologies, 41400045), 0.25% Albumax (Thermo Fisher, 11020021), and 10 ng/mL recombinant human activin-A (R&D Systems, 338-AC). Subsequently, the cells were cultured for 1 day in medium 2 which consisted of medium 1 supplemented with 10 μM retinoic acid (Stemgent, 04-0021). On day 6, the medium was replaced with medium 3, and the culture was continued until day 12 in order to induce differentiation into β cells. Medium 3 consisted of DMEM (low glucose) (Life Technologies, 11885084) supplemented with 0.1 mM NEAA, 2 mM L-glutamine, 100 U/mL penicillin-streptomycin, 0.1 mM β-mercaptoethanol, 1% ITS, 0.25% Albumax, and 3 mM nicotinamide (Sigma-Aldrich, N0636-500G). A test compound was added on day 8, and the cells were fixed in 4% paraformaldehyde for analysis using a high-content imager.
A chemical library consisting of about 55,000 compounds was screened for a substance that induced β cell differentiation. […] Fluorescence images were quantified using Operetta high-content imaging system and Harmony image analysis software (PerkinElmer, Germany). The nuclei were identified by DAPI staining, and the positivity of antibody staining was determined from the fluorescence intensity of a cytoplasmic region surrounding the nucleus. The number of cells positive to both insulin and GFP was counted and normalized with the total number of DAPI-positive cells or a positive area. A median of quadruple data was calculated, and screening hits were defined as states in which the number of insulin- and GFP-positive cells was increased as compared with a DMSO control. […] The activity of the selected candidate compounds was further analyzed with Toe human iPS cell assay system in order to select a hit compound having effectiveness for both differentiation into mouse β cells and differentiation into human β cells. A compound was added as described above, and its effectiveness was evaluated from a mRNA expression level by q-PCR in triplet experiments. […]

Question: `C[C@H](NC(=O)[C@@H](O)c1cc(F)cc(F)c1)C(=O)N[C@@H]1C(=O)N(C)c2ccccc2-c2ccccc21` [LY411575, reference compound] was tested. Which “number of Pdx1-GFP+Ins+ double-positive cells” value did it give?
Answer: increase
